The source of these data is PubChem BioAssay AID1259407 (Chemical Carcinogenesis Research Information System (CCRIS), 2018).

The source made the active and inactive calls. How the calls were made is not given here.

This data set deals with CCRIS mutagenicity, Ames/micronucleus/aberration tests. Description: CCRIS mutagenicity studies.
The mark [1] stands for this setting: Test System: AMES SALMONELLA TYPHIMURIUM, Strain/Indicator: TA98, Metabolic Activation: NONE, Method: PREINCUBATION
The mark [2] stands for this setting: Test System: AMES SALMONELLA TYPHIMURIUM, Strain/Indicator: TA100, Metabolic Activation: NONE, Method: PREINCUBATION
Where [3] appears, read: Test System: AMES SALMONELLA TYPHIMURIUM, Strain/Indicator: TA1535, Metabolic Activation: NONE, Method: PREINCUBATION
[4] abbreviates: End Point: IN VITRO CHROMOSOMAL ABERRATIONS, Test System: CHINESE HAMSTER OVARY CELLS, Metabolic Activation: NONE.
[5] abbreviates: End Point: IN VITRO CHROMOSOMAL ABERRATIONS, Test System: CHINESE HAMSTER OVARY CELLS, Metabolic Activation: RAT, LIVER, S-9, AROCLOR 1254.

As for `CCCCOCCOCCO`, the mutagenic call reads like this: (Test System: AMES SALMONELLA TYPHIMURIUM, Strain/Indicator: TA97, Metabolic Activation: HAMSTER, LIVER, S-9, AROCLOR 1254 (10 OR 30%), Method: PREINCUBATION) “inactive; negative”; (Test System: AMES SALMONELLA TYPHIMURIUM, Strain/Indicator: TA97, Metabolic Activation: NONE, Method: PREINCUBATION) “inactive; negative”; (Test System: AMES SALMONELLA TYPHIMURIUM, Strain/Indicator: TA97, Metabolic Activation: RAT, LIVER, S-9, AROCLOR 1254 (10 OR 30%), Method: PREINCUBATION) “inactive; negative”; (Test System: AMES SALMONELLA TYPHIMURIUM, Strain/Indicator: TA98, Metabolic Activation: HAMSTER, LIVER, S-9, AROCLOR 1254 (10 OR 30%), Method: PREINCUBATION) “inactive; negative”; under setting [1], “inactive; negative”; (Test System: AMES SALMONELLA TYPHIMURIUM, Strain/Indicator: TA98, Metabolic Activation: NONE, Method: STANDARD PLATE) “inactive; negative”. Moreover, the mutagenic call is “inactive; negative” (Test System: AMES SALMONELLA TYPHIMURIUM, Strain/Indicator: TA98, Metabolic Activation: RAT, LIVER, S-9, AROCLOR 1254 (10 OR 30%), Method: PREINCUBATION); “inactive; negative” (Test System: AMES SALMONELLA TYPHIMURIUM, Strain/Indicator: TA98, Metabolic Activation: RAT, LIVER, S-9, AROCLOR 1254, Method: STANDARD PLATE); “inactive; negative” (Test System: AMES SALMONELLA TYPHIMURIUM, Strain/Indicator: TA100, Metabolic Activation: HAMSTER, LIVER, S-9, AROCLOR 1254 (10 OR 30%), Method: PREINCUBATION); “inactive; negative” under setting [2]; “inactive; negative” (Test System: AMES SALMONELLA TYPHIMURIUM, Strain/Indicator: TA100, Metabolic Activation: NONE, Method: STANDARD PLATE); “inactive; negative” (Test System: AMES SALMONELLA TYPHIMURIUM, Strain/Indicator: TA100, Metabolic Activation: RAT, LIVER, S-9, AROCLOR 1254 (10 OR 30%), Method: PREINCUBATION). Also, the mutagenic call is, setting by setting: (Test System: AMES SALMONELLA TYPHIMURIUM, Strain/Indicator: TA100, Metabolic Activation: RAT, LIVER, S-9, AROCLOR 1254, Method: STANDARD PLATE) “inactive; negative”; (Test System: AMES SALMONELLA TYPHIMURIUM, Strain/Indicator: TA1535, Metabolic Activation: HAMSTER, LIVER, S-9, AROCLOR 1254 (10 OR 30%), Method: PREINCUBATION) “inactive; negative”; under setting [3], “inactive; negative”; (Test System: AMES SALMONELLA TYPHIMURIUM, Strain/Indicator: TA1535, Metabolic Activation: NONE, Method: STANDARD PLATE) “inactive; negative”; (Test System: AMES SALMONELLA TYPHIMURIUM, Strain/Indicator: TA1535, Metabolic Activation: RAT, LIVER, S-9, AROCLOR 1254 (10 OR 30%), Method: PREINCUBATION) “inactive; negative”; (Test System: AMES SALMONELLA TYPHIMURIUM, Strain/Indicator: TA1535, Metabolic Activation: RAT, LIVER, S-9, AROCLOR 1254, Method: STANDARD PLATE) “inactive; negative”. Moreover, the mutagenic call (Test System: AMES SALMONELLA TYPHIMURIUM, Strain/Indicator: TA1537, Metabolic Activation: NONE, Method: STANDARD PLATE) is “inactive; negative”; the mutagenic call (Test System: AMES SALMONELLA TYPHIMURIUM, Strain/Indicator: TA1537, Metabolic Activation: RAT, LIVER, S-9, AROCLOR 1254, Method: STANDARD PLATE) was “inactive; negative”; the mutagenic call (Test System: AMES SALMONELLA TYPHIMURIUM, Strain/Indicator: TA1538, Metabolic Activation: NONE, Method: STANDARD PLATE) was “inactive; negative”; the mutagenic call (Test System: AMES SALMONELLA TYPHIMURIUM, Strain/Indicator: TA1538, Metabolic Activation: RAT, LIVER, S-9, AROCLOR 1254, Method: STANDARD PLATE) is “inactive; negative”; the mutagenic call (Test System: CHINESE HAMSTER OVARY, Strain/Indicator: CHO-K1-BH4 (HGPRT)/6-THIOGUANINE, Metabolic Activation: NONE) is “inactive; negative”; the mutagenic call (Test System: CHINESE HAMSTER OVARY, Strain/Indicator: CHO-K1-BH4 (HGPRT)/THIOGUANINE, Metabolic Activation: RAT, LIVER, S-9, AROCLOR 1254) is “inactive; negative”. The mutagenic call was “active; positive” (Test System: MOUSE LYMPHOMA, Strain/Indicator: L5178Y (TK+/TK-), Metabolic Activation: NONE, Method: SUSPENSION/PLATE); “inactive; negative” (Test System: MOUSE LYMPHOMA, Strain/Indicator: L5178Y (TK+/TK-), Metabolic Activation: RAT, LIVER, S-9, AROCLOR 1254, Method: SUSPENSION/PLATE); “inactive; negative” (Test System: UDS RAT HEPATOCYTES, Strain/Indicator: THY INCORP, Metabolic Activation: NONE, Method: AUTORADIOGRAPHY).

As to `C=C(CC(=O)OCC)C(=O)O`, for the setting “Test System: Chinese Hamster ovary (CHO) cells, Metabolic Activation: None, Method: HGPRT/6-Thioguanine”, the mutagenic call is “inactive; negative”.

As to `CC(CCl)OC(C)CCl` (stereo unspecified), the mutagenic call by setting is: under setting [4], “inactive; negative; precipitation occurred at all doses”; under setting [5], “active; positive; precipitation occurred at 497, 730 and 993 ug/ml”.

Turning to `O=C1OC(=O)c2ccccc21`, the mutagenic call under setting [4] was “inactive; negative”; the mutagenic call under setting [5] is “inactive; negative”; the mutagenic call (End Point: IN VITRO CHROMOSOMAL ABERRATIONS, Test System: CHO CELLS, Metabolic Activation: NONE) was “active; positive; precipitation occurred at 10 mm”; the mutagenic call (Test System: AMES SALMONELLA TYPHIMURIUM, Strain/Indicator: TA98, Metabolic Activation: HAMSTER, LIVER, S-9, AROCLOR 1254 (10%), Method: PREINCUBATION) was “inactive; negative”; the mutagenic call under setting [1] is “inactive; negative”; the mutagenic call (Test System: AMES SALMONELLA TYPHIMURIUM, Strain/Indicator: TA98, Metabolic Activation: RAT LIVER S-9, PHENOBARBITAL AND BETA-NAPHTHOFLAVONE, Method: PREINCUBATION) is “inactive; negative”. Further, the mutagenic call by setting is: (Test System: AMES SALMONELLA TYPHIMURIUM, Strain/Indicator: TA98, Metabolic Activation: RAT, LIVER, S-9, AROCLOR 1254 (10%), Method: PREINCUBATION) “inactive; negative”; (Test System: AMES SALMONELLA TYPHIMURIUM, Strain/Indicator: TA100, Metabolic Activation: HAMSTER, LIVER, S-9, AROCLOR 1254 (10%), Method: PREINCUBATION) “inactive; negative”; under setting [2], “inactive; negative”; (Test System: AMES SALMONELLA TYPHIMURIUM, Strain/Indicator: TA100, Metabolic Activation: RAT LIVER S-9, PHENOBARBITAL AND BETA-NAPHTHOFLAVONE, Method: PREINCUBATION) “inactive; negative”; (Test System: AMES SALMONELLA TYPHIMURIUM, Strain/Indicator: TA100, Metabolic Activation: RAT, LIVER, S-9, AROCLOR 1254 (10%), Method: PREINCUBATION) “inactive; negative”; (Test System: AMES SALMONELLA TYPHIMURIUM, Strain/Indicator: TA1535, Metabolic Activation: HAMSTER, LIVER, S-9, AROCLOR 1254 (10%), Method: PREINCUBATION) “inactive; negative”. The mutagenic call was “inactive; negative” under setting [3]; “inactive; negative” (Test System: AMES SALMONELLA TYPHIMURIUM, Strain/Indicator: TA1535, Metabolic Activation: RAT LIVER S-9, PHENOBARBITAL AND BETA-NAPHTHOFLAVONE, Method: PREINCUBATION); “inactive; negative” (Test System: AMES SALMONELLA TYPHIMURIUM, Strain/Indicator: TA1535, Metabolic Activation: RAT, LIVER, S-9, AROCLOR 1254 (10%), Method: PREINCUBATION); “inactive; negative” (Test System: AMES SALMONELLA TYPHIMURIUM, Strain/Indicator: TA1537, Metabolic Activation: HAMSTER, LIVER, S-9, AROCLOR 1254 (10%), Method: PREINCUBATION); “inactive; negative” (Test System: AMES SALMONELLA TYPHIMURIUM, Strain/Indicator: TA1537, Metabolic Activation: NONE, Method: PREINCUBATION); “inactive; negative” (Test System: AMES SALMONELLA TYPHIMURIUM, Strain/Indicator: TA1537, Metabolic Activation: RAT LIVER S-9, PHENOBARBITAL AND BETA-NAPHTHOFLAVONE, Method: PREINCUBATION). Moreover, the mutagenic call is “inactive; negative” (Test System: AMES SALMONELLA TYPHIMURIUM, Strain/Indicator: TA1537, Metabolic Activation: RAT, LIVER, S-9, AROCLOR 1254 (10%), Method: PREINCUBATION); “inactive; negative” (Test System: E.COLI, Strain/Indicator: WP2UVRA, Metabolic Activation: NONE, Method: PREINCUBATION); “inactive; negative” (Test System: E.COLI, Strain/Indicator: WP2UVRA, Metabolic Activation: RAT LIVER S-9, PHENOBARBITAL AND BETA-NAPHTHOFLAVONE, Method: PREINCUBATION).
